In US12227501B2, “3-amino-2-[2-(acylamino)pyridin-4-yl]-1,5,6,7-tetrahydro-4h-pyrrolo[3,2-c]pyridin-4-one as CSNK1 inhibitors” (Bayer Aktiengesellschaft, priority 2019, dated 2025):
Where “and” joins values, the source holds several entries; their conditions need not be identical. Identical values can stand only once. Like-named read-outs stand apart in the source and are kept apart here.

How the values were obtained:
Format in all cases: biochemical
human CSNK1A1 [1] = target: T1, human CSNK1A1 (Homo sapiens (Human), UniProt P48729); assay: CSNK1A1 High ATP Assay (ADP-Glo, 1 mM ATP); conditions: read-out: CSNK1A1 high ATP assay IC50 [mol/l] (median)
Procedure, shortened: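 GST-tagged full-length human CSNK1A1 from baculovirus-infected insect cells (typically about 0.4 ng/μL), pre-incubated with compound 15 min at 22 °C. Reaction with biotinylated peptide biotin-Ahx-KRRRAL-pS-VASLPGL at 1 mM ATP. ADP formed read by ADP-Glo luminescence.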

human CSNK1A1 [2] = target: T1, human CSNK1A1; assay: CSNK1A1 Assay 2 (ADP-Glo, 1 μM ATP); conditions: substrate biotin-Ahx-KRRRAL-pS-VASLPGL, read-out: CSNK1A1 Assay 2 IC50 [mol/l] (median)
Procedure, shortened: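 Full-length human CSNK1A1 as an N-terminal GST fusion (baculovirus/insect cells) with biotinylated peptide substrate biotin-Ahx-KRRRAL-pS-VASLPGL and 1 μM ATP, in HEPES pH 7.5 buffer. Compounds were pre-incubated with enzyme (~0.0375 ng/μL) for 15 min at 22 °C. Generated ADP was read by ADP-Glo luminescence as the activity measure.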

human CSNK1D = human CSNK1D (Homo sapiens (Human), UniProt P48730); assay: CSNK1D Assay (ADP-Glo, 1 μM ATP); conditions: read-out: CSNK1D IC50 [mol/l] (median)
Procedure, shortened: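 GST-tagged full-length human CSNK1D from baculovirus-infected insect cells, typically ~0.5 ng/μL, with biotinylated peptide substrate and 1 μM ATP in HEPES pH 7.5 buffer. Compound is preincubated with enzyme 15 min at 22 °C. ADP formed is quantified by ADP-Glo luminescence.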

[3] = target: wild-type Epidermal Growth Factor Receptor (EGFR) (Homo sapiens (Human), UniProt P00533); assay: WT-EGFR Kinase Assay (TR-FRET, 2 mM ATP)
[4] = EGFR Wildtyp- 2 mM ATP IC50 [mol/l] (median)
[5] = read-out: EGFR Wildtyp- 2 mM ATP IC50 [mol/l] (median)

T1 sequence (P48729 whole entry): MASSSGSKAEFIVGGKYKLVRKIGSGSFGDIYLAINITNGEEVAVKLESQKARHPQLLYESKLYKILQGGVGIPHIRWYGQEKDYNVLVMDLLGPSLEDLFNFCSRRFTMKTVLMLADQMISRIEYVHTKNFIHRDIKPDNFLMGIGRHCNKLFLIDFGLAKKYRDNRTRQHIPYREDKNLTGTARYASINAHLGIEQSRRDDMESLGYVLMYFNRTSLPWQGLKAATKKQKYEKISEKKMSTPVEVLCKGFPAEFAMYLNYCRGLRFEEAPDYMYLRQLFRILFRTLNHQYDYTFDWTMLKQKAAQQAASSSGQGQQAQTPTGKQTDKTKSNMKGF
human CSNK1D, sequence (P48730 whole entry): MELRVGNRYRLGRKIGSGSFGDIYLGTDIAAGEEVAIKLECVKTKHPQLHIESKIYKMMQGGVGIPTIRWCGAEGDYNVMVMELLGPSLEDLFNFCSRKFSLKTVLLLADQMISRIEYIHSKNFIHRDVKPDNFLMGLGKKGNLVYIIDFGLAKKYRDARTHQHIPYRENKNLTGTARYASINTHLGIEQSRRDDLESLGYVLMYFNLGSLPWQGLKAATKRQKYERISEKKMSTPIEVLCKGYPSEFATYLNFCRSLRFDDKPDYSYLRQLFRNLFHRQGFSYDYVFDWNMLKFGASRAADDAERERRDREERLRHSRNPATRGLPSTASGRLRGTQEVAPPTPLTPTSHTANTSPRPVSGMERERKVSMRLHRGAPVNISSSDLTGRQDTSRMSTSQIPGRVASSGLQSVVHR
wild-type Epidermal Growth Factor Receptor (EGFR), sequence (P00533 669-1210): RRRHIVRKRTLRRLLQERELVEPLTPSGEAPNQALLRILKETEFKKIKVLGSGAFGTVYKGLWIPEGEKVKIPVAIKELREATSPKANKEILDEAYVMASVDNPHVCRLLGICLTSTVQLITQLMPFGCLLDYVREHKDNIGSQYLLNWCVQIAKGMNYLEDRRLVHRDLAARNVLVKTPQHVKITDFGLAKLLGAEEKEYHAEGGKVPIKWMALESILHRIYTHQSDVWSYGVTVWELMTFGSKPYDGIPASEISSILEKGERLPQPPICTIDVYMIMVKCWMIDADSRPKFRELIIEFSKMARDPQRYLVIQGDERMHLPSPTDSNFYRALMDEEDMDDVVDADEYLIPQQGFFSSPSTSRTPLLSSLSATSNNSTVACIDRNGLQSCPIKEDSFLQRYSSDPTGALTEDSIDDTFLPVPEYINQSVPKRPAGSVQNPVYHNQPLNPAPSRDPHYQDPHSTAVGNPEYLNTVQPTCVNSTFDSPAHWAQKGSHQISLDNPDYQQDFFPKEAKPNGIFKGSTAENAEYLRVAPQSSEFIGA

SMILES | IC50 (human CSNK1A1 [1]) | IC50 (human CSNK1A1 [2]) [nM] | IC50 (human CSNK1D) [nM] | IC50 [3, 4] [nM] | IC50 [3, 5] [nM]
Cc1ccccc1Nc1c(-c2ccnc(NC(=O)C(CC(F)F)c3ccc(F)cc3)c2)[nH]c2c1C(=O)NC(C)(C)C2 (single isomer, unassigned; enantiomer 1) [Example 136, N-{4-[6,6-dimethyl-3-(2-methylanilino)-4-oxo-4,5,6,7-tetrahydro-1H-pyrrolo[3,2-c]pyridin-2-yl]pyridin-2-yl}-4,4-difluoro-2-(4-fluorophenyl)butanamide (Enantiomer 1)] | 45.6 nM | 13.7 | 45.3 | > 20000 | 
CN1CCc2[nH]c(-c3ccnc(NC(=O)C(CC(F)F)c4ccccc4)c3)c(Nc3ccccc3)c2C1=O (centres unmarked) [Example 33, N-[4-(3-anilino-5-methyl-4-oxo-4,5,6,7-tetrahydro-1H-pyrrolo[3,2-c]pyridin-2-yl)pyridin-2-yl]-4,4-difluoro-2-phenylbutanamide] | 72.2 nM | 6.15 | 18.1 |  | > 20000
CC1(C)Cc2[nH]c(-c3ccnc(NC(=O)C(CC(F)F)c4ccc(S(C)(=O)=O)cc4)c3)c(Nc3ccccc3)c2C(=O)N1 (racemic) [Example 118, N-[4-(3-anilino-6,6-dimethyl-4-oxo-4,5,6,7-tetrahydro-1H-pyrrolo[3,2-c]pyridin-2-yl)pyridin-2-yl]-4,4-difluoro-2-[4-(methanesulfonyl)phenyl]butanamide (Racemate)] | 107 nM | 5.16 | 12.9 | 7260 | 
CC(C(=O)Nc1cc(-c2[nH]c3c(c2Nc2ccccc2Cl)C(=O)NCC3)ccn1)c1ccc(F)cc1 (single isomer, unassigned) [Example 16, N-{4-[3-(2-chloroanilino)-4-oxo-4,5,6,7-tetrahydro-1H-pyrrolo[3,2-c]pyridin-2-yl]pyridin-2-yl}-2-(4-fluorophenyl)propanamide] | 102 nM | 2.57 | 8 |  | > 20000
CN1CCc2[nH]c(-c3ccnc(NC(=O)Cc4cccc(S(C)(=O)=O)c4)c3)c(Nc3ccccc3)c2C1=O [Example 69, N-[4-(3-anilino-5-methyl-4-oxo-4,5,6,7-tetrahydro-1H-pyrrolo[3,2-c]pyridin-2-yl)pyridin-2-yl]-2-[3-(methanesulfonyl)phenyl]acetamide] | 81.7 nM | 3.13 | 4.68 |  | 510
CCC(C(=O)Nc1cc(-c2[nH]c3c(c2Nc2ccccc2)C(=O)N(C)CC3)ccn1)c1ccc(F)cc1 (single isomer, unassigned; (-)) [Example 76, (−)-N-[4-(3-anilino-5-methyl-4-oxo-4,5,6,7-tetrahydro-1H-pyrrolo[3,2-c]pyridin-2-yl)pyridin-2-yl]-2-(4-fluorophenyl)butanamide] | 506 nM | 14.4 | 17.5 | > 20000 | 
CC1Cc2[nH]c(-c3ccnc(NC(=O)C(CC(F)F)c4ccc(F)cc4)c3)c(Nc3ccccc3F)c2C(=O)N1C (single isomer, unassigned; (+)) [Example 108, (+)-4,4-difluoro-N-{4-[3-(2-fluoroanilino)-5,6-dimethyl-4-oxo-4,5,6,7-tetrahydro-1H-pyrrolo[3,2-c]pyridin-2-yl]pyridin-2-yl}-2-(4-fluorophenyl)butanamide] | 8.33 nM | 3.27 | 4.62 |  | > 20000
O=C1NC2(CC2)Cc2[nH]c(-c3ccnc(NC(=O)C(CC(F)F)c4ccc(F)cc4)c3)c(Nc3ccccc3)c21 (single isomer, unassigned; enantiomer 2) [Example 149, N-[4-(3′-anilino-4′-oxo-1′,4′,5′,7′-tetrahydrospiro[cyclopropane-1,6′-pyrrolo[3,2-c]pyridin]-2′-yl)pyridin-2-yl]-4,4-difluoro-2-(4-fluorophenyl)butanamide (Enantiomer 2)] | 473 nM | 40.4 | 39.4 | 16700 | 
CC(C(=O)Nc1cc(-c2[nH]c3c(c2Nc2ccccc2)C(=O)NC(C)(C)C3)ccn1)c1ccc(F)cc1 (centres unmarked) [Example 27, N-[4-(3-anilino-6,6-dimethyl-4-oxo-4,5,6,7-tetrahydro-1H-pyrrolo[3,2-c]pyridin-2-yl)pyridin-2-yl]-2-(4-fluorophenyl)propanamide] | 157 nM | 7.7 | 36.2 | > 20000 | 18000
CC1(C)Cc2[nH]c(-c3ccnc(NC(=O)C(CC(F)F)c4ccc(F)cc4)c3)c(Nc3ccccc3)c2C(=O)N1 (single isomer, unassigned; (+)) [Example 49, (+)-N-[4-(3-anilino-6,6-dimethyl-4-oxo-4,5,6,7-tetrahydro-1H-pyrrolo[3,2-c]pyridin-2-yl)pyridin-2-yl]-4,4-difluoro-2-(4-fluorophenyl)butanamide] | 19.6 nM | 4.57 | 7.3 | > 20000 | 
CC1Cc2[nH]c(-c3ccnc(NC(=O)Cc4ccc(F)cc4)c3)c(Nc3ccccc3F)c2C(=O)N1C (single isomer, unassigned; (-)) [Example 102, (−)-N-{4-[3-(2-fluoroanilino)-5,6-dimethyl-4-oxo-4,5,6,7-tetrahydro-1H-pyrrolo[3,2-c]pyridin-2-yl]pyridin-2-yl}-2-(4-fluorophenyl)acetamide] | 51 nM | 3.6 | 7.21 | 2330 | 
CC(C(=O)Nc1cc(-c2[nH]c3c(c2Nc2ccccc2)C(=O)N(C)CC3)ccn1)c1ccncc1 (racemic) [Example 72, N-[4-(3-anilino-5-methyl-4-oxo-4,5,6,7-tetrahydro-1H-pyrrolo[3,2-c]pyridin-2-yl)pyridin-2-yl]-2-(pyridin-4-yl)propanamide] | 66.4 nM | 3.97 | 6.09 | 7590 | 
Cc1ccccc1Nc1c(-c2ccnc(NC(=O)C(CC(F)F)c3ccc(F)cc3)c2)[nH]c2c1C(=O)NC1(CCC1)C2 (racemic) [Example 143, 4,4-difluoro-2-(4-fluorophenyl)-N-{4-[3′-(2-methylanilino)-4′-oxo-1′,4′,5′,7′-tetrahydrospiro[cyclobutane-1,6′-pyrrolo[3,2-c]pyridin]-2′-yl]pyridin-2-yl}butanamide (Racemate)] | 32 nM | 16.7 | 18.4 | > 20000 | 
CCC(C(=O)Nc1cc(-c2[nH]c3c(c2Nc2ccccc2)C(=O)N(C)CC3)ccn1)c1ccc(F)cc1 (racemic) [Example 75, N-[4-(3-anilino-5-methyl-4-oxo-4,5,6,7-tetrahydro-1H-pyrrolo[3,2-c]pyridin-2-yl)pyridin-2-yl]-2-(4-fluorophenyl)butanamide] | 164 nM | 5.49 | 8.28 | > 20000 | 
CC1(C)Cc2[nH]c(-c3ccnc(NC(=O)C(CN)c4ccc(F)cc4)c3)c(Nc3ccccc3)c2C(=O)N1 (single isomer, unassigned; enantiomer 2) [Example 141, 3-amino-N-[4-(3-anilino-6,6-dimethyl-4-oxo-4,5,6,7-tetrahydro-1H-pyrrolo[3,2-c]pyridin-2-yl)pyridin-2-yl]-2-(4-fluorophenyl)propanamide (Enantiomer 2)] | 599 nM | 57.8 | 127 |  | > 20000
CC(C(=O)Nc1cc(-c2[nH]c3c(c2Nc2ccccc2)C(=O)NC(C)(C)C3)ccn1)c1ccc(F)cc1 (single isomer, unassigned) [Example 39, N-[4-(3-anilino-6,6-dimethyl-4-oxo-4,5,6,7-tetrahydro-1H-pyrrolo[3,2-c]pyridin-2-yl)pyridin-2-yl]-2-(4-fluorophenyl)propanamide] | 2.84 µM and 2.9 µM and > 20 µM (2×) | 179 | 214 | > 20000 | 
CC(C(=O)Nc1cc(-c2[nH]c3c(c2Nc2ccccc2)C(=O)N(C)C(C)C3)ccn1)c1ccc(F)cc1 (single isomer, unassigned; (+)) [Example 91, (+)-(2RS)—N-{4-[(6R*)-3-anilino-5,6-dimethyl-4-oxo-4,5,6,7-tetrahydro-1H-pyrrolo[3,2-c]pyridin-2-yl]pyridin-2-yl}-2-(4-fluorophenyl)propanamide] | 693 nM | 4.73 | 8.83 | > 20000 | 
O=C(Cc1ccc(F)cc1)Nc1cc(-c2[nH]c3c(c2Nc2cccc(F)c2Cl)C(=O)NC2(CCC2)C3)ccn1 [Example 122, N-{4-[3′-(2-chloro-3-fluoroanilino)-4′-oxo-1′,4′,5′,7′-tetrahydrospiro[cyclobutane-1,6′-pyrrolo[3,2-c]pyridin]-2′-yl]pyridin-2-yl}-2-(4-fluorophenyl)acetamide] | 26.8 nM | 4.12 | 4.71 |  | 2150
CC1(C)Cc2[nH]c(-c3ccnc(NC(=O)Cc4cccnc4)c3)c(Nc3ccccc3)c2C(=O)N1 [Example 52, N-[4-(3-anilino-6,6-dimethyl-4-oxo-4,5,6,7-tetrahydro-1H-pyrrolo[3,2-c]pyridin-2-yl)pyridin-2-yl]-2-(pyridin-3-yl)acetamide] | 25.4 nM | 4.91 | 6.78 |  | 526
